According to the supplement of paper PMC13207355:
± gives the standard deviation of the averaged measurements.

What was measured:
Conditions in all cases: exposure time: 72 h
E13 [1] = patient-derived glioblastoma stem cells of classical subtype; test: surviving fraction (nuclei count normalised to DMSO); higher = more cells surviving (less toxic)
E21 [2] = patient-derived glioblastoma stem cells of mesenchymal subtype; test: as above
E28 [3] = patient-derived glioblastoma stem cells of classical subtype; test: as above
E31 [4] = patient-derived glioblastoma stem cells of proneural subtype; test: as above
E34 [5] = patient-derived glioblastoma stem cells of proneural subtype; test: as above
E57 [6] = patient-derived glioblastoma stem cells of mesenchymal subtype; test: as above
FT3469 [7] = normal neural stem cell line; test: as above
E13 [8] = test: phenotypic distance (Euclidean, principal components) from DMSO controls (arbitrary units); higher = stronger morphological change
E21 [9] = test: as above
E28 [10] = test: as above
E31 [11] = test: as above
E34 [12] = test: as above
E57 [13] = test: as above
FT3469 [14] = test: as above
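Wherever phenotypic distance (Euclidean, principal components) from DMSO controls is given: cell Painting imaging in 384-well plates, CellProfiler features reduced to at least 20 principal components, Euclidean distance versus same-plate DMSO vehicle wells (0.1% v/v), median over six images per well.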
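Wherever surviving fraction (nuclei count normalised to DMSO) is given: nuclei counted by high-content imaging of Hoechst-stained cells in laminin-coated 384-well plates, relative to 0.1% DMSO vehicle wells, with staurosporine as cell-death control.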

Cc1[nH]nc(C(F)(F)F)c1Cc1sc2c(c1C(=O)N1C[C@](C)(O)CO1)c(=O)n(C)c(=O)n2C(C)C [AZD3965]
surviving fraction (E13 [1]; 4.1 nM): 0.892
surviving fraction (E13 [1]; 4.11523 nM): 0.874
surviving fraction (E13 [1]; 12.3 nM): 0.878
surviving fraction (E13 [1]; 12.34567901 nM): 0.853
surviving fraction (E13 [1]; 37 nM): 0.902
surviving fraction (E13 [1]; 37.037 nM): 0.888
surviving fraction (E13 [1]; 111.1 nM): 0.875
surviving fraction (E13 [1]; 111.1111111 nM): 0.852
surviving fraction (E13 [1]; 333.3 nM): 0.798
surviving fraction (E13 [1]; 333.333 nM): 0.795
surviving fraction (E13 [1]; 1000 nM): 0.8872 ± 0.0032
surviving fraction (E13 [1]; 3000 nM): 0.893 ± 0.14
surviving fraction (E21 [2]; 4.1 nM): 0.918
surviving fraction (E21 [2]; 4.11523 nM): 0.909
surviving fraction (E21 [2]; 12.3 nM): 0.974
surviving fraction (E21 [2]; 12.34567901 nM): 0.942
surviving fraction (E21 [2]; 37 nM): 1.01
surviving fraction (E21 [2]; 37.037 nM): 0.985
surviving fraction (E21 [2]; 111.1 nM): 0.876
surviving fraction (E21 [2]; 111.1111111 nM): 0.994
surviving fraction (E21 [2]; 333.3 nM): 0.97
surviving fraction (E21 [2]; 333.333 nM): 0.874
surviving fraction (E21 [2]; 1000 nM): 0.975 ± 0.013
surviving fraction (E21 [2]; 3000 nM): 1.03 ± 0.048
surviving fraction (E28 [3]; 4.1 nM): 0.719
surviving fraction (E28 [3]; 4.11523 nM): 0.606
surviving fraction (E28 [3]; 12.3 nM): 0.623
surviving fraction (E28 [3]; 12.34567901 nM): 0.725
surviving fraction (E28 [3]; 37 nM): 0.66
surviving fraction (E28 [3]; 37.037 nM): 0.664
surviving fraction (E28 [3]; 111.1 nM): 0.585
surviving fraction (E28 [3]; 111.1111111 nM): 0.599
surviving fraction (E28 [3]; 333.3 nM): 0.695
surviving fraction (E28 [3]; 333.333 nM): 0.602
surviving fraction (E28 [3]; 1000 nM): 0.645 ± 0.073
surviving fraction (E28 [3]; 3000 nM): 0.609 ± 0.0062
surviving fraction (E31 [4]; 4.1 nM): 1.02
surviving fraction (E31 [4]; 4.11523 nM): 0.885
surviving fraction (E31 [4]; 12.3 nM): 1.01
surviving fraction (E31 [4]; 12.34567901 nM): 1.03
surviving fraction (E31 [4]; 37 nM): 1.11
surviving fraction (E31 [4]; 37.037 nM): 0.935
surviving fraction (E31 [4]; 111.1 nM): 1.02
surviving fraction (E31 [4]; 111.1111111 nM): 1.26
surviving fraction (E31 [4]; 333.3 nM): 1.08
surviving fraction (E31 [4]; 333.333 nM): 0.948
surviving fraction (E31 [4]; 1000 nM): 1.06 ± 0.084
surviving fraction (E31 [4]; 3000 nM): 0.9527 ± 0.0084
surviving fraction (E34 [5]; 4.1 nM): 0.782
surviving fraction (E34 [5]; 4.11523 nM): 0.704
surviving fraction (E34 [5]; 12.3 nM): 0.677
surviving fraction (E34 [5]; 12.34567901 nM): 0.748
surviving fraction (E34 [5]; 37 nM): 0.775
surviving fraction (E34 [5]; 37.037 nM): 0.724
surviving fraction (E34 [5]; 111.1 nM): 0.71
surviving fraction (E34 [5]; 111.1111111 nM): 0.849
surviving fraction (E34 [5]; 333.3 nM): 0.713
surviving fraction (E34 [5]; 333.333 nM): 0.686
surviving fraction (E34 [5]; 1000 nM): 0.7 ± 0.031
surviving fraction (E34 [5]; 3000 nM): 0.718 ± 0.11
surviving fraction (E57 [6]; 4.1 nM): 0.905
surviving fraction (E57 [6]; 4.11523 nM): 0.97
surviving fraction (E57 [6]; 12.3 nM): 0.959
surviving fraction (E57 [6]; 12.34567901 nM): 0.899
surviving fraction (E57 [6]; 37 nM): 0.94
surviving fraction (E57 [6]; 37.037 nM): 0.871
surviving fraction (E57 [6]; 111.1 nM): 0.932
surviving fraction (E57 [6]; 111.1111111 nM): 0.96
surviving fraction (E57 [6]; 333.3 nM): 0.917
surviving fraction (E57 [6]; 333.333 nM): 0.898
surviving fraction (E57 [6]; 1000 nM): 0.922 ± 0.052
surviving fraction (E57 [6]; 3000 nM): 0.917 ± 0.078
surviving fraction (FT3469 [7]; 4.1 nM): 0.911
surviving fraction (FT3469 [7]; 4.11523 nM): 0.788
surviving fraction (FT3469 [7]; 12.3 nM): 0.929
surviving fraction (FT3469 [7]; 12.34567901 nM): 0.932
surviving fraction (FT3469 [7]; 37 nM): 0.838
surviving fraction (FT3469 [7]; 37.037 nM): 0.903
surviving fraction (FT3469 [7]; 111.1 nM): 0.873
surviving fraction (FT3469 [7]; 111.1111111 nM): 1.07
surviving fraction (FT3469 [7]; 333.3 nM): 1.05
surviving fraction (FT3469 [7]; 333.333 nM): 0.841
surviving fraction (FT3469 [7]; 1000 nM): 0.948 ± 0.055
surviving fraction (FT3469 [7]; 3000 nM): 0.899 ± 0.045
phenotypic distance (E13 [8]; 4.1 nM): 2.38
phenotypic distance (E13 [8]; 4.11523 nM): 3.36
phenotypic distance (E13 [8]; 12.3 nM): 1.38
phenotypic distance (E13 [8]; 12.34567901 nM): 1.25
phenotypic distance (E13 [8]; 37 nM): 1.12
phenotypic distance (E13 [8]; 37.037 nM): 1.28
phenotypic distance (E13 [8]; 111.1 nM): 1.14
phenotypic distance (E13 [8]; 111.1111111 nM): 1.42
phenotypic distance (E13 [8]; 333.3 nM): 1.61
phenotypic distance (E13 [8]; 333.333 nM): 1.44
phenotypic distance (E13 [8]; 1000 nM): 1.42 ± 0.29
phenotypic distance (E13 [8]; 3000 nM): 1.49 ± 0.26
phenotypic distance (E21 [9]; 4.1 nM): 0.524
phenotypic distance (E21 [9]; 4.11523 nM): 0.56
phenotypic distance (E21 [9]; 12.3 nM): 0.38
phenotypic distance (E21 [9]; 12.34567901 nM): 0.473
phenotypic distance (E21 [9]; 37 nM): 0.579
phenotypic distance (E21 [9]; 37.037 nM): 0.608
phenotypic distance (E21 [9]; 111.1 nM): 3
phenotypic distance (E21 [9]; 111.1111111 nM): 0.601
phenotypic distance (E21 [9]; 333.3 nM): 0.814
phenotypic distance (E21 [9]; 333.333 nM): 0.596
phenotypic distance (E21 [9]; 1000 nM): 0.438 ± 0.024
phenotypic distance (E21 [9]; 3000 nM): 0.509 ± 0.17
phenotypic distance (E28 [10]; 4.1 nM): 1.93
phenotypic distance (E28 [10]; 4.11523 nM): 2.44
phenotypic distance (E28 [10]; 12.3 nM): 2.03
phenotypic distance (E28 [10]; 12.34567901 nM): 2.3
phenotypic distance (E28 [10]; 37 nM): 2.12
phenotypic distance (E28 [10]; 37.037 nM): 2.05
phenotypic distance (E28 [10]; 111.1 nM): 2.52
phenotypic distance (E28 [10]; 111.1111111 nM): 2.75
phenotypic distance (E28 [10]; 333.3 nM): 2.16
phenotypic distance (E28 [10]; 333.333 nM): 1.86
phenotypic distance (E28 [10]; 1000 nM): 3.17 ± 1.1
phenotypic distance (E28 [10]; 3000 nM): 2.52 ± 0.15
phenotypic distance (E31 [11]; 4.1 nM): 1.24
phenotypic distance (E31 [11]; 4.11523 nM): 1.57
phenotypic distance (E31 [11]; 12.3 nM): 1.17
phenotypic distance (E31 [11]; 12.34567901 nM): 1.51
phenotypic distance (E31 [11]; 37 nM): 1.23
phenotypic distance (E31 [11]; 37.037 nM): 1.3
phenotypic distance (E31 [11]; 111.1 nM): 1.12
phenotypic distance (E31 [11]; 111.1111111 nM): 1.4
phenotypic distance (E31 [11]; 333.3 nM): 1.58
phenotypic distance (E31 [11]; 333.333 nM): 1.36
phenotypic distance (E31 [11]; 1000 nM): 1.41 ± 0.15
phenotypic distance (E31 [11]; 3000 nM): 1.36 ± 0.5
phenotypic distance (E34 [12]; 4.1 nM): 1.15
phenotypic distance (E34 [12]; 4.11523 nM): 1.69
phenotypic distance (E34 [12]; 12.3 nM): 1.33
phenotypic distance (E34 [12]; 12.34567901 nM): 1.5
phenotypic distance (E34 [12]; 37 nM): 1.42
phenotypic distance (E34 [12]; 37.037 nM): 1.59
phenotypic distance (E34 [12]; 111.1 nM): 1.57
phenotypic distance (E34 [12]; 111.1111111 nM): 1.79
phenotypic distance (E34 [12]; 333.3 nM): 1.47
phenotypic distance (E34 [12]; 333.333 nM): 1.47
phenotypic distance (E34 [12]; 1000 nM): 1.21 ± 0.17
phenotypic distance (E34 [12]; 3000 nM): 1.35 ± 0.28
phenotypic distance (E57 [13]; 4.1 nM): 1.39
phenotypic distance (E57 [13]; 4.11523 nM): 1.81
phenotypic distance (E57 [13]; 12.3 nM): 1.46
phenotypic distance (E57 [13]; 12.34567901 nM): 1.78
phenotypic distance (E57 [13]; 37 nM): 1.94
phenotypic distance (E57 [13]; 37.037 nM): 2.19
phenotypic distance (E57 [13]; 111.1 nM): 1.74
phenotypic distance (E57 [13]; 111.1111111 nM): 1.87
phenotypic distance (E57 [13]; 333.3 nM): 1.65
phenotypic distance (E57 [13]; 333.333 nM): 1.79
phenotypic distance (E57 [13]; 1000 nM): 1.74 ± 0.13
phenotypic distance (E57 [13]; 3000 nM): 1.93 ± 0.47
phenotypic distance (FT3469 [14]; 4.1 nM): 2.64
phenotypic distance (FT3469 [14]; 4.11523 nM): 1.35
phenotypic distance (FT3469 [14]; 12.3 nM): 0.859
phenotypic distance (FT3469 [14]; 12.34567901 nM): 1.19
phenotypic distance (FT3469 [14]; 37 nM): 0.806
phenotypic distance (FT3469 [14]; 37.037 nM): 1.13
phenotypic distance (FT3469 [14]; 111.1 nM): 0.75
phenotypic distance (FT3469 [14]; 111.1111111 nM): 1.11
phenotypic distance (FT3469 [14]; 333.3 nM): 1.33
phenotypic distance (FT3469 [14]; 333.333 nM): 1.16
phenotypic distance (FT3469 [14]; 1000 nM): 0.712 ± 0.19
phenotypic distance (FT3469 [14]; 3000 nM): 0.976 ± 0.23
